According to the RepoRT retention time repository (doi:10.1016/j.jhazmat.2019.121712):

Test: Thermo Scientific Acclaim RSLC 120 C18, 100 × 2.1 mm, 2.2 µm, 30 °C; A: 90% water + 10% methanol + 0.01% formic acid + 5 mM ammonium formate; B: methanol + 0.01% formic acid + 5 mM ammonium formate; gradient (min/%B) 0.1/1 3/39 14/99.9 16/99.9
Details: stereoisomer not certain

Structure (SMILES) | LC retention time
COC(=O)C(C)N(C(=O)c1ccco1)c1c(C)cccc1C (stereo not given) | 8.99 min
Cc1cccc(CC(C)N)c1 (stereo not given) | 5.17 min
CCOC(=O)N(C)C(=O)CSP(=S)(OCC)OCC | 10.2 min
CN=CNc1ccc(C)cc1C | 4.44 min
c1ccc2scnc2c1 | 6.88 min
CCOP(=S)(OCC)SCCSCC | 11.5 min
Oc1ccc2c3c1OC1C(O)C=CC4C(C2)NCCC341 (stereo not given) | 2.71 min
CC(C)OC(=O)c1cc(C(=O)OC(C)C)cc([N+](=O)[O-])c1 | 12 min
Cn1cnc2c1c(=O)[nH]c(=O)n2C | 3.28 min
CN(C)CCCn1c2c(c3ccccc31)CCCCCC2 | 9.26 min
CCC1C(=O)OCC1Cc1cncn1C (stereo not given) | 2.74 min
COc1cc(NS(=O)(=O)c2ccc(NC(C)=O)cc2)nc(OC)n1 | 6.23 min
CCCN(CCC)c1c([N+](=O)[O-])cc(S(N)(=O)=O)cc1[N+](=O)[O-] | 10.3 min
CC(CS)C(=O)N1CCCC1C(=O)O (stereo not given) | 4.59 min
CCCNC(C)Cc1ccccc1 (stereo not given) | 4.83 min
CCc1cc(OC)c(CCN)cc1OC | 6.48 min
CCCSP(=O)(OCC)SCCC | 10.2 min
CC(C)C(O)(C(=O)OCC1=CC[N+]2([O-])CCC(O)C12)C(C)O (stereo not given) | 3.94 min
CN1CCCC(CC2c3ccccc3Sc3ccccc32)C1 (stereo not given) | 8.51 min
C=CC(=O)NC(C)(C)CS(=O)(=O)O | 2.8 min
CCC(=O)OC(OP(=O)(CCCCc1ccccc1)CC(=O)N1CC(C2CCCCC2)CC1C(=O)O)C(C)C (stereo not given) | 12.4 min
CCOC(=O)CCN(Cc1ccccc1)SN(C)C(=O)ON=C(C)SC | 10.8 min
CCCOC(C(=O)OC1CCN(C)CC1)(c1ccccc1)c1ccccc1 | 9.36 min

Structure (SMILES) | LC retention time
CCN(CC)CCCOC(=O)C1(c2ccccc2)CC2CCC1C2 (stereo not given) | 8.54 min
CCCN(CC)CC1COC2(CCC(C(C)(C)C)CC2)O1 (stereo not given) | 9.32 min
Cc1cn(C2CC(N=[N+]=[N-])C(CO)O2)c(=O)[nH]c1=O (stereo not given) | 4.56 min
CNC(=O)ON=CC(C)(C)S(C)(=O)=O | 3.75 min
CCCCC1=NC2(CCCC2)C(=O)N1Cc1ccc(-c2ccccc2-c2nn[nH]n2)cc1 | 9.44 min
Cc1ccccc1C(=O)Nc1cccc(OC(C)C)c1 | 9.62 min
CCOC(=O)c1ccc(N)cc1 | 6.27 min
CCn1cc(C(=O)O)c(=O)c2ccc(C)nc21 | 7.06 min
Cc1cccc2n[nH]nc12 | 5.83 min
COC(=O)NS(=O)(=O)c1ccc(N)cc1 | 3.41 min
CCOc1ccc(NC(C)=O)cc1 | 5.93 min
CCC(C)C1OC2(C=CC1C)CC1CC(CC=C(C)C(OC3CC(OC)C(OC4CC(OC)C(NC)C(C)O4)C(C)O3)C(C)C=CC=C3COC4C(O)C(C)=CC(C(=O)O1)C34O)O2 (stereo not given) | 12.4 min
CCOC1Oc2ccc(OS(C)(=O)=O)cc2C1(C)C (stereo not given) | 9.14 min
COc1cccc2c(C(=O)NC3C4(C)CCC(C4)C3(C)C)cn(CCN3CCOCC3)c12 (stereo not given) | 11.7 min
NC(=O)CS(=O)C(c1ccccc1)c1ccccc1 (stereo not given) | 6.76 min
Cc1cc(C)nc(NC(=O)NS(=O)(=O)c2ccccc2C(=O)OC2COC2)n1 | 6.52 min
CC(C)=CC1C(C(=O)OCN2C(=O)C3=C(CCCC3)C2=O)C1(C)C (stereo not given) | 12.2 min
COC(=O)c1ccccc1C(=O)OC | 6.63 min
COc1ccc2[nH]cc(CCN(C)C)c2c1 | 3.98 min
CCOP(=S)(OCC)Oc1cc(C)nc(C(C)C)n1 | 11 min
CNC(=O)Oc1cc(C)c(SC)c(C)c1 | 9.34 min
CCCc1nn(C)c2c(=O)[nH]c(-c3cc(S(=O)(=O)N4CCN(Cc5ccccc5)CC4)ccc3OCC)nc12 | 11.5 min
COc1ccc(C(=O)c2c(C)n(CCN3CCOCC3)c3ccccc23)cc1 | 9.55 min

Structure (SMILES) | LC retention time
CC1=C(C(=O)O)N2C(=O)C(NC(=O)C(N)c3ccc(O)cc3)C2SC1 (stereo not given) | 2.84 min
CCC=CCC1=C(C)C(OC(=O)C2C(C=C(C)C)C2(C)C)CC1=O (stereo not given) | 13.3 min
CCOP(=S)(OCC)SCSCC | 11.4 min
CCNc1nc(NC(C)CC)nc(OC)n1 (stereo not given) | 8.79 min
COP(=S)(OC)Oc1ccc(S(C)(=O)=O)c(C)c1 | 7.57 min
NC1CCc2cc3c(cc2C1)OCO3 (stereo not given) | 4.32 min
CN1C(=O)CCC1c1cccnc1 (stereo not given) | 3.75 min
CCCCCCCn1cc(C(=O)c2cccc3ccccc23)c2ccccc21 | 13.4 min
COC(=O)C(NC(=O)c1nn(CC2CCCCC2)c2ccccc12)C(C)(C)C (stereo not given) | 12.9 min
CCC(C)(C)c1ccc(CC(C)CN2CC(C)OC(C)C2)cc1 (stereo not given) | 12.9 min
CC1=NNC(=O)N(N=Cc2cccnc2)C1 | 4.01 min
Cc1ncc(CO)c(CO)c1O | 2.18 min
OCCOCCN1CCN(C2=Nc3ccc(O)cc3Sc3ccccc32)CC1 | 4.99 min
Cc1nnc(NS(=O)(=O)c2ccc(N)cc2)s1 | 4.21 min
COc1ccc2[nH]cc(CCN(C(C)C)C(C)C)c2c1 | 4.81 min
Cc1ccc(S(=O)(=O)NC(=O)NN2CCCCCC2)cc1 | 8.09 min
CCOc1c(N)c2c(c(OCC)c1OCC)C(C1c3c(cc4c(c3OC)OCO4)CCN1C)OC2=O (stereo not given) | 12 min
CC(=O)Oc1ccc(C(c2ccc(OC(C)=O)cc2)c2ccccn2)cc1 | 8.92 min
CNC(C)C(=O)c1ccccc1 (stereo not given) | 3.68 min
CC1C(=O)OC2CC[N+]3([O-])CC=C(COC(=O)C(C)(O)C1(C)O)C23 (stereo not given) | 3.19 min
Cc1cnc(C(=O)NCCc2ccc(S(=O)(=O)NC(=O)NC3CCCCC3)cc2)cn1 | 8.11 min
COC(=O)C1=CCCN(C)C1 | 1.74 min
CNC(=O)CSP(=O)(OC)OC | 3.35 min

Structure (SMILES) | LC retention time
CCCCn1cc(C(=O)c2c(C)ccc3ccccc23)c2ccccc21 | 12.3 min
CNC(=O)Oc1ccccc1C1OCCO1 | 5.16 min
NC(=O)c1cccnc1 | 2.73 min
CCCc1nn(C)c2c(=O)[nH]c(-c3cc(C(=O)CN4CCN(CC=Cc5ccccc5)CC4)ccc3OCC)nc12 | 9.28 min
CNC(=O)ON=C(CSC)C(C)(C)C | 7.8 min
CNC(=O)Oc1cc(C)c(C)c(C)c1 | 8.1 min
CCOc1cc(NC(C)=O)ccc1C(=O)OC | 6.63 min
CC(C)NCC(O)COc1ccc(CC(N)=O)cc1 (stereo not given) | 3.09 min
COc1cccc(C2(O)CCCCC2CN(C)C)c1 (stereo not given) | 4.88 min
NCCc1ccccc1 | 3.57 min
C[N+]1([O-])CCN2c3ccccc3Cc3ccccc3C2C1 (stereo not given) | 7.63 min
CC(C(=O)c1ccccc1)N1CCCC1 (stereo not given) | 4.01 min
COc1cc(C=C2CCCC(=Cc3ccc(O)c(OC)c3)C2=O)ccc1O | 9.59 min
COc1ccc(CC(C)NCC(O)c2ccc(O)c(NC=O)c2)cc1 (stereo not given) | 4.79 min
CSc1nc2ccccc2s1 | 9.79 min
CN(C)NC(=O)CCC(=O)O | 6.28 min
CC(C)(C)c1ccc(CCOc2ncnc3ccccc23)cc1 | 13.7 min
CN(C(=O)COc1nc2ccccc2s1)c1ccccc1 | 9.83 min
CCSC(=O)N1CCCCCC1 | 9.89 min
CCC(=O)C1(c2cccc(O)c2)CCN(C)CC1 | 4.26 min
COC(=O)C1=C(C)NC(C)=C(C(=O)OC(C)C)C1c1cccc2nonc12 (stereo not given) | 9.61 min
CCOc1cc(OP(=S)(OC)OC)nc(CC)n1 | 11 min
CCC(C(=O)c1ccc2c(c1)OCO2)N(C)C (stereo not given) | 4.38 min

Structure (SMILES) | LC retention time
CCc1c(C)[nH]c2c1C(=O)C(CN1CCOCC1)CC2 (stereo not given) | 4.89 min
CN(C)C(CSS(=O)(=O)c1ccccc1)CSS(=O)(=O)c1ccccc1 | 9.6 min
CCCN(CCC)C(=O)SCc1ccccc1 | 11.9 min
Oc1ccc2c3c1OC1C(O)CCC4(O)C(C2)N(CC2CCC2)CCC314 (stereo not given) | 4.17 min
CCN(CC)CCNC(=O)c1cc(S(C)(=O)=O)ccc1OC | 3.41 min
O=C(Nc1ccccc1)Nc1cnns1 | 7.17 min
CN(C)S(=O)(=O)c1ccc2c(c1)N(CCCN1CCC(CCO)CC1)c1ccccc1S2 | 7.39 min
CNC(C)Cc1ccc(O)c(O)c1 (stereo not given) | 2.59 min
C[N+](C)([O-])CCC(c1ccccc1)c1ccccn1 (stereo not given) | 5.39 min
CCCCNc1ccc(C(=O)OCCN(C)C)cc1 | 6.43 min
CC[N+]1([O-])CCCC1CNC(=O)c1cc(S(=O)(=O)CC)c(N)cc1OC (stereo not given) | 4.33 min
CN(C)CCC(c1ccccc1)c1ccccn1 (stereo not given) | 4.98 min
CSC(C)=NOC(=O)N(C)SN(C)C(=O)ON=C(C)SC | 7.64 min
COc1ccc2c3c1OC1C(O)C=CC4C(C2)NCCC341 (stereo not given) | 3.5 min
COC(=O)C1=C(C)NC(C)=C(C(=O)OCCN(C)Cc2ccccc2)C1c1cccc([N+](=O)[O-])c1 (stereo not given) | 8.39 min
c1cc2c(cc1CN1CCNCC1)OCO2 | 4.22 min
CCCc1nn(C)c2c(=O)[nH]c(-c3cc(S(=O)(=O)N4CCN(C)CC4)ccc3OCC)nc12 | 7.88 min
CCC(=O)OC(Cc1ccccc1)(c1ccccc1)C(C)CNC (stereo not given) | 7.84 min
Cc1ccc(N(CC2=NCCN2)c2cccc(O)c2)cc1 | 5.86 min
COC1(C)CC(c2ccccc2)c2c(c3ccccc3oc2=O)O1 (stereo not given) | 11.1 min
CC(=O)Oc1cc(C(C)C)c(OCCN(C)C)cc1C | 6.21 min
CSc1nc(N=[N+]=[N-])nc(NC(C)C)n1 | 9.71 min
CC(CN1c2ccccc2Sc2ccc(S(=O)(=O)N(C)C)cc21)N(C)C (stereo not given) | 7.01 min
